Consider four compounds from US11084783B2, “O-alkyl-benzylideneguanidine derivatives and therapeutic use for the treatment of disorders associated with an accumulation of misfolded proteins” (INFLECTIS BIOSCIENCE, priority 2014, dated 2021).

In data set [1] the test system is HeLa cells. Briefly: Cytoprotection from ER stress (tunicamycin), cell viability by WST-8. The following applies: HeLa cells, 6 hour exposure to tunicamycin 5 μg/mL, compounds 0.5-10 μM, viability 48 h or 72 h. On the set-up: key to Cytoprotection from ER stress compared to guanabenz: +: lower cytoprotective effect compared to Guanabenz; ++: similar cytoprotective effect compared to Guanabenz; +++: higher cytoprotective effect compared to Guanabenz. Type of data set: cell-based. An excerpt:
Cytoprotection against ER stress can be measured by a suitable assay. For example, cytoprotection can be measured in HeLa cells in which ER stress is elicited by the addition of media containing tunicamycin, a mixture of homologous nucleoside antibiotics that inhibits the UDP-HexNAc: polyprenol-P HexNAc-1-P family of enzymes and is used to induce unfolded protein response. Cell viability can be detected in the presence and absence of inhibitor compounds after a set period of time, by measuring the reduction of WST-8 into formazan using a standard cell viability kit (such as Cell Viability Counting Kit-8 from Dojindo). Cytoprotection from ER stress is measured in terms of the percentage increase in viable cells (relative to control) after ER stress. Further details of a suitable assay are set forth in the accompanying Examples section.
This assay is described in Tsaytler et al. (Science 2011). HeLa Cells were cultured in Eagle's Minimum Essential Medium (EMEM) supplemented with Glutamine, Sodium Pyruvate, Non-Essential Amino Acids, Penicillin and Streptomycin containing 10% Foetal Bovine Serum (FBS), at 37° C. in 5% CO2 atmosphere. Cells were plated in 96 well plates at a density of 17,000 cells/mL the day before the treatment. ER stress was elicited by addition of 5 μg/mL tunicamycin (Sigma-Aldrich) together with PPP1R15A inhibitors (0.5-10 μM). Media were changed 6h later with fresh media and the cytoprotection was maintained by the addition of PPP1R15A inhibitors (0.5-10 μM). Cell viability was assessed by measuring the reduction of WST-8 into formazan using Cell Counting Kit-8 (Sigma) according to the supplier's recommendation, 48 h or 72h after tunicamycin treatment. Cytoprotection from ER stress is measured in terms of cytoprotective potency effect compared to the reference compound Guanabenz (Tsaytler et al., Science 2011) after ER stress: • ‘+’ no cytoprotective effect; • ‘+’ lower cytoprotective effect compared to Guanabenz; • ‘++’ similar cytoprotective effect compared to Guanabenz; • ‘+++’ higher cytoprotective effect compared to Guanabenz.
Table 1 summarizes the results of cytoprotective effect of different compounds of the invention, compared to guanabenz, after the stress induced by a 6 hour exposure of tunicamycin.
(Tetrazolium dyes change colour on reduction, which living cells bring about.)

Data set [2] concerns rotenone injured primary mesencephalic rat neurons. Briefly: In vitro Parkinson's disease model: rotenone injured primary mesencephalic rat neurons. Type of data set: cell-based. The following applies: rotenone 10 nM, 24 hours; total number of TH positive neurons. The method, then: Rat dopaminergic neurons were cultured as described by Schinelli et al., (1988 J. Neurochem 50 pp1900-07) and Visanji et al., (2008 FASEB J. 22(7) pp2488-97). Briefly, the midbrains obtained from 15-day old rat embryos (Janvier Labs, France) were dissected under a microscope. The embryonic midbrains were removed and placed in ice-cold medium of Leibovitz (L15, Pan Biotech, Batch: 9310614) containing 2% of Penicillin-Streptomycin (PS, Pan Biotech, Batch: 1451013) and 1% of bovine serum albumin (BSA, Pan Biotech, Batch: h140603). The ventral portion of the mesencephalic flexure, a region of the developing brain rich in dopaminergic neurons, was used for the cell preparations.
The midbrains were dissociated by trypsinisation for 20 min at 37° C. (Trypsin 0.05% EDTA 0.02%, PanBiotech, Batch: 5890314). The reaction was stopped by the addition of Dulbecco's modified Eagle's medium (DMEM, PanBiotech, Batch: 1300714) containing DNAase I grade II (0.1 mg/ml, PanBiotech, Batch: H140508) and 10% of foetal calf serum (FCS, Gibco, Batch: 41Q7218K). Cells were then mechanically dissociated by 3 passages through a 10 ml pipette. Cells were then centrifuged at 180×g for 10 min at +4° C. on a layer of BSA (3.5%) in L15 medium. The supernatant was discarded and the cell pellets were re-suspended in a defined culture medium consisting of Neurobasal (Invitrogen, Batch: 1636133) supplemented with B27 (2%, Invitrogen, Batch: 1660670), L-glutamine (2 mM, PanBiotech, Batch: 8150713) and 2% of PS solution and 10 ng/ml of Brain-derived neurotrophic factor (BDNF, PanBiotech, Batch: H140108) and 1 ng/ml of Glial-Derived Neurotrophic Factor (GDNF, Pan Biotech, Batch: H130917). Viable cells were counted in a Neubauer cytometer using the trypan blue exclusion test. The cells were seeded at a density of 40 000 cells/well in 96 well-plates pre-coated with poly-L-lysine (Corning Biocoat, Batch: 6614022) and maintained in a humidified incubator at 37° C. in 5% CO2/95% air atmosphere. Half of the medium was changed every 2 days with fresh medium.
On day 6 of culture, the medium was removed and fresh medium was added, without or with rotenone (Sigma, Batch: 021M2227V) at 10 nM diluted in control medium, 3 wells per condition were assessed. […]
The immunolabeled cultures were automatically examined with ImageXpress (Molecular device USA). For each condition, 20 automatically fields per well (representing ˜80% of the total surface of the well) from 3 wells were analyzed. The total number of TH neurons was automatically analyzed using Custom module editor (Molecular Devices, USA). […] All values were expressed as mean +/−SEM (s.e. mean) of the 1 culture (n=3 wells per condition per culture).

Data set [3] relates to HeLa cells. The following applies: tunicamycin, Tsaytler et al., Science 2011, cited from earlier work.

Regarding `C=CCO/N=C(\N)N/N=C/c1ccccc1Cl` [Compound 5, 2-(2-chlorobenzylidene)-N′-(prop-2-en-1-yloxy)hydrazinecarboximidamide], the “Cytoprotection from ER stress compared to guanabenz” value in data set [1] is “+”. In addition, in data set [2], the “protection of rotenone injured primary mesencephalic rat neurons (FIG. 3)” value is on record as “dose dependent protection”.
On to `Clc1cccc(Cl)c1N=C1NCCN1` [clonidine], for which the “protection of cells from cytotoxic ER stress” value in data set [3] is “Neither the α2-adrenergic receptor agonist clonidine, nor the α2-adrenergic receptor antagonist efaroxan protected cells”.
Turning to `CCC1(C2=NCCN2)Cc2ccccc2O1` (centres unmarked) [efaroxan], the “protection of cells from cytotoxic ER stress” value in data set [3] is recorded as “Neither the α2-adrenergic receptor agonist clonidine, nor the α2-adrenergic receptor antagonist efaroxan protected cells”.
Turning to `NC(N)=N/N=C/c1c(Cl)cccc1Cl` [guanabenz, 2-(2,6-dichlorobenzylidene)hydrazinecarboximidamide], the EC50 in data set [3] (read-out: median effective concentration, survival of HeLa cells exposed to ER stress) was about 400 nM.
